Assay results from patent publication US11136547B2, “Mesoderm induction method having high blood cell differentiation capacity” (Kyoto University, priority 2016, dated 2021).
“Also recorded” adds a separate entry of the source.

Key:
[1] = system: KhES3 and H1 cells; test: Intermediate step intervention in C3H10T1/2 co-culture: occurrence of CD43+ blood cells on day 10; assay type: cell-based, human; conditions: factor added in intermediate step days 4 to 7, in the presence of VEGF; compared with control/DMSO group; n=3
Protocol: (§1) Human ES cells that had been maintenance cultured in MEF were detached from the bottom of the dish in colony form as at the time of passage, and seeded on an inactivated C3H10T1/2 dish that had been prepared the previous day. The seeding rate was roughly 5×10^4 to 2×10^5 cells per 10-cm dish, although this is an estimate because the cells could not be counted. The medium was blood cell differentiation medium to which VEGF had been added to a final concentration of 20 ng/mL. Single cells were collected using 0.05% trypsin EDTA as necessary, the cells were counted, Y27632 was added to […], and the cells were differentiated as single cells.
When analyzing cells during differentiation, the culture supernatant was removed, the cells were washed twice with PBS, and 2 mL/dish of 0.25% trypsin EDTA was added and incubated for 5 minutes at 37° C. […] Blood cell differentiation medium was added to stop the reaction, and after centrifugation and removal of the supernatant, the cells were suspended in the necessary medium and analyzed.
(§2) Cells in a single-cell state were prepared as necessary, and fluorescent labeled antibodies were also included as necessary in amounts matching the cell numbers. […] These were then diluted with SM and centrifuged, the supernatant was removed, and the cells were suspended in the necessary amount of SMPI and analyzed. […]

[2] = system: KhES3 and H1 cells; test: Initial step intervention in C3H10T1/2 co-culture: occurrence of CD56+APJ+ mesodermal cells on day 4 (flow cytometry); assay type: cell-based, human; conditions: factor added on days 0 to 4; co-culture with C3H10T1/2; compared with control group; n=3
Protocol: as §1
When analyzing cells during differentiation, the culture supernatant was removed, the cells were washed twice with PBS, and 2 mL/dish of 0.25% trypsin EDTA was added and incubated for 5 minutes at 37° C. The cells were separated into single cells by pipetting with a Pipetman (p1000), and collected in a 15 mL centrifuge tube. Blood cell differentiation medium was added to stop the reaction, and after centrifugation and removal of the supernatant, the cells were suspended in the necessary medium and analyzed.
as §2
Taking cell surface markers as an evaluation standard, KhES3 and H1 cells were used to investigate what changes are seen in the occurrence of CD56+APJ+ cells due to interventions in the initial step. […] For the added concentrations of each factor, the maximum concentration was determined with reference to previous reports, and this was then diluted to investigate concentration (Inman, G. J. et al., Mol. Pharmacol. 62, 65-74 (2002); Xu, R.-H. et al., Nat Meth 2, 185-190 (2005); Huang, S.-M. A. et al., Nature 461, 614-620 (2009)).

Row | Molecule | percentage occurrence of blood cells (CD43+) on day 10 [1] | occurrence of CD56+APJ+ mesodermal cells on day 4 [2]
1 | bFGF: basic fibroblast growth factor | tended to be better | 
2 | NC(=O)c1ccc(-c2nc(-c3ccc4c(c3)OCO4)c(-c3ccccn3)[nH]2)cc1 [SB431542] | increased; also recorded: significantly improved | sharp drop in the ratio of CD56+APJ+ cells at the low concentration point; also recorded: significant decrease in the mesodermal cell population
3 | Oc1nc(-c2ccc(C(F)(F)F)cc2)nc2c1CSCC2 [XAV939] |  | reduction in CD56+APJ+ cells was confirmed; also recorded: tended to decrease
4 | NOGGIN: physiological BMP antagonist (protein, UniProt Q13253 28-232, looked up) Noggin: QHYLHIRPAPSDNLPLVDLIEHPDPIFDPKEKDLNETLLRSLLGGHYDPGFMATSPPEDRPGGGGGAAGGAEDLAELDQLLRQRPSGAMPSEIKGLEFSEGLAQGKKQRLSKKLRRKLQMWLWSQTFCPVLYAWNDLGSRFWPRYVKVGSCFSKRSCSVPEGMVCKPSKSVHLTVLRWRCQRRGGQRCGWIPIQYPIISECKCSC |  | drop in CD56+APJ+ cells was confirmed, but the effect was limited; also recorded: decrease in the mesodermal cell population
